Where two headings read alike, the source gives them in different places.
Legend:
[1] = biological target: T1, V-ATPase (purified from enterococci or recombinant E. coli) (Enterococcus hirae, UniProt P43439+P43457); assay: ATPase activity measurement (molybdenum blue method, primary screening); type: biochemical
T1 construct: made in house; host or cells: Enterococcus hirae (native) or recombinant E. coli
Method: The ATPase activity can be measured by a molybdenum blue method for measuring absorbance of the inorganic phosphoric acid generated by hydrolysis of ATP. As the reaction conditions, conditions for measuring the ATPase activity can be adopted. As the buffer solution used in the reaction, Tris-HCl buffer can be used. The reaction time is usually 10 to 60 minutes, but can be appropriately adjusted depending on the air temperature or the like. The reaction of V-ATPase is terminated with the addition of a surfactant such as sodium dodecyl sulfate (SDS), and into which a color-developing liquid (such as ferrous sulfate) is added to give a color, and then the concentration of the inorganic phosphoric acid can be calculated by the measurement of the absorbance at a wavelength of 650 nm.
From the concentration of inorganic phosphoric acid calculated above, the inhibition rate of the V-ATPase reaction can be calculated. That is, a graph is created in which the inhibition rate is plotted on the vertical axis and the concentration of compound is plotted on the horizontal axis, and the concentration (IC50) at which the inhibition rate becomes 50% is determined. As the concentration of compound at which IC50 is obtained becomes lower, a higher V-ATPase inhibitory effect is exerted with a small amount, and accordingly, the compound can be taken as a candidate compound for the inhibitor for V-ATPase activity.
The V-ATPase was prepared by the method disclosed in the following papers. • Paper 1: Takeshi Murata, et. al, “Purification and Reconstitution of Na^+-translocating Vacuolar ATPase from Enterococcus hirae”, J. Biol. Chem. 272, 24885-24890 (1997) • Paper 2: Takeshi Murata, et. al, “Torque Generation of Enterococcus hirae V-ATPase”, J. Biol. Chem. 289, 31212-31223 (2014)
ATPase activity measurement was conducted by a molybdenum blue method that quantifies the inorganic phosphoric acid generated by hydrolysis of ATP with the use of absorbance measurement. The measurement was conducted in a 96-well plate, and 0.05% DDM (n-dodecyl-β-D-maltoside), 10 μg/mL of V-ATPase (purified from enterococci or recombinant E. coli), and 20 μM of a compound were added into a buffer (100 mM Tris-HCl at pH 8.5, 100 mM NaCl, 5 mM MgSO4, 10% glycerol). Into the mixture obtained above, ATP was added so as to be 5 mM, the whole amount was set to 100 μL, the reaction was started while stirring the mixture with a stirrer, and the reaction time was set to 30 minutes. Since the ATPase activity changes largely depending on the reaction temperature, the reaction time was adjusted within the range of 10 to 60 minutes corresponding to the air temperature on the day of the experiment. With the addition of 50 μL of 20% SDS, the V-ATPase was denatured and the reaction was terminated, and into the resultant mixture, 75 μL of color-developing liquid (5% ferrous sulfate, 1.6% ammonium molybdate, and 1 M sulfuric acid) was added to give a color. Immediately, the absorbance at a wavelength of 650 nm was measured by using a plate reader. Four kinds of KH2PO4 aqueous solutions of 0.2 mM, 0.5 mM, 1.0 mM, and 1.5 mM were reacted with MQ (ultrapure water) in the same experiment system, and then the activity of V-ATPase was measured by determining the concentration of generated inorganic phosphoric acid with the use of a created calibration curve. In this regard, a compound that had inhibited 50% or more of the activity of V-ATPase was diluted stepwisely so as to have a concentration of 10 μM, 5 μM, 2 μM, 1 μM, 500 nM, 200 nM, 100 nM, and 50 nM, and the measurement similar to the above was conducted.
From the results of the above measurement of ATPase activity, the inhibition rate was calculated comparing the decrease in the activity by assuming the activity under the condition of no compound addition as 100. A graph was created in which the inhibition rate was plotted on the vertical axis and the concentration of compound was plotted on the horizontal axis (FIG. 2). […]

[2] = tested on: enterococci (Enterococcus hirae); assay: Growth experiment of enterococci (secondary screening), OD600 at pH 7.0 and pH 8.5; type: cell-based; design: Growth inhibition rate (%): concentration or dose not given beside the values; settings: for Specificity: growth inhibition at pH 8.5 versus pH 7.0
Method: In the culture of enterococci (Enterococcus hirae), a culture medium in which the Na^+ concentration had been adjusted by adding a buffer solution using 2% tryptone and 1% yeast extract as the base was used. In a case of adding glucose, glucose prepared in a 50% solution was added so as to be 1% into the culture medium when the culture medium was used. The whole amount 200 μL was cultured using a 96-well plate, and OD600 was measured every hour by using a plate reader. By using culture media at pH 7.0 and pH 8.5, the effect of pH on the growth was observed. In culture of bacteria, the pH often fluctuates largely due to the decomposition of the sugars required for the growth, and it is extremely important to maintain a constant pH in this experiment, and therefore, the pH was maintained constant with the addition of a buffer suitable for each pH. Since the V-ATPase is expressed only under an alkaline condition, the growth inhibition observed with the addition of an inhibitor is largely dependent on the pH.
IC50 and the like of the above 24 kinds of compounds are described in the following table. […] Furthermore, with respect to the symbol “n.a.”, a compound having a growth inhibition rate of 60% or more at pH 7.0 is determined that there was the growth inhibition. In addition, the growth inhibition rate of a compound having no clear inhibition is also recorded for reference.

[3] = Table 3, 2-phenyl benzimidazole derivatives, read-out: IC50
[4] = Table 3, 2-phenyl benzimidazole derivatives
[5] = Table 2, inhibition of V-ATPase ATPase activity, pH 8.5 buffer, read-out: IC50
[6] = Table 2, E. hirae growth, pH not stated (media pH 7.0 and pH 8.5)
[7] = IC50 (nM), Table 2, inhibition of V-ATPase ATPase activity, pH 8.5 buffer
[8] = IC50 (nM), Table 4, (1,2,4-oxadiazol-3-yl)phenyl derivatives
[9] = high affinity for V-ATPase (IC50), unit inferred
[10] = Table 4, (1,2,4-oxadiazol-3-yl)phenyl derivatives

SMILES	IC50 [1, 5]	Growth inhibition rate (%) [2, 6]	Specificity ([2]; Table 2)	IC50 [1, 7]	also measured
COc1ccc(-c2nc3cc(C)ccc3[nH]2)cc1 [Compound V-161-10]					IC50 [1, 3]: 120 nM; Growth inhibition rate (%) [2, 4]: 86.8%; Specificity ([2]; Table 3): + (there was no growth inhibition at pH 7.0 but was the growth inhibition at pH 8.5)
CCOc1ccc2nc3cc(N)ccc3c(N)c2c1 [Compound V-170]	10000 nM	49.7%	+ (there was no growth inhibition at pH 7.0 but was the growth inhibition at pH 8.5)		
CC(C)CN(CC(C)C)c1ccc([N+](=O)[O-])cc1/C=N/Nc1ccccc1 [Compound V-105]	1000 nM	90.8%	n.a. (there was the growth inhibition in any case)		
CCCCC#Cc1cncc(C(=O)N/N=C/c2cccs2)c1 [Compound V-99]	2500 nM	6.7%	− (there was no growth inhibition in any case)		
CC(Cc1ccc(O)c(O)c1)C(C)Cc1ccc(O)c(O)c1 (centres unmarked) [Compound V-115]		0.3%	− (there was no growth inhibition in any case)	400 nM	
CCCCC1CCC(C(=O)Oc2ccc(C=O)c(O)c2)CC1 (centres unmarked) [Compound V-149]	4500 nM	90.5%	n.a. (there was the growth inhibition in any case)		
N=C(N)Nc1nc(-c2ccccc2)c2cc(F)ccc2n1 [Compound V-171]	2500 nM	85.6%	+ (there was no growth inhibition at pH 7.0 but was the growth inhibition at pH 8.5)		
CCC(C)C1OC2(CCC1C)CC1CC(CC=C(C)C(OC3CC(OC)C(OC4CC(OC)C(O)C(C)O4)C(C)O3)C(C)C=CC=C3COC4C(O)C(C)=CC(C(=O)O1)C34O)O2 (centres unmarked) [Compound V-85]		66.4%	+ (there was no growth inhibition at pH 7.0 but was the growth inhibition at pH 8.5)	10000 nM	
Cc1ccccc1OCc1nc(-c2ccc(NC(=O)c3cccs3)cc2)no1 [Compound V-234, N-(4-(5-((o-tolyloxy)methyl)-1,2,4-oxadiazol-3-yl)phenyl)thiophene-2-carboxamide]		75.5%	+ (there was no growth inhibition at pH 7.0 but was the growth inhibition at pH 8.5)	40 nM	IC50 [1, 8]: 40 nM; IC50 [1, 9]: ≤ 400 nM; non-specific inhibition / non-specific bond [2]: no non-specific inhibition; Growth inhibition rate (%) [2, 10]: 75.5%
Cc1ccc2[nH]c(-c3ccc(Br)cc3)nc2c1 [Compound V-161-03]					IC50 [1, 3]: 120 nM; Growth inhibition rate (%) [2, 4]: 89.8%; Specificity ([2]; Table 3): + (there was no growth inhibition at pH 7.0 but was the growth inhibition at pH 8.5)
CN(C)C(=S)N/N=C1\C(=O)C(c2ccccc2)(c2ccccc2)c2ccccc21 [Compound V-150]	500 nM	70.4%	n.a. (there was the growth inhibition in any case)		
CN(C)c1ccc2nc3ccc(N(C)C)cc3[s+]c2c1 [Compound V-27]		64.0%	+ (there was no growth inhibition at pH 7.0 but was the growth inhibition at pH 8.5)	3000 nM	
CCCCCCCCCOc1ccc(C=C2C(=O)NC(=O)NC2=O)cc1 [Compound V-130, 5-(4-(nonyloxy)benzylidene)pyrimidine-2,4,6 (1H,3H,5H)-trione]		88.2%	− (there was no growth inhibition in any case)	20 nM	IC50 [1, 9]: ≤ 400 nM; non-specific inhibition / non-specific bond [2]: non-specific inhibition
CCCc1ccc(OCc2nc(-c3ccc(NC(=O)c4cccs4)cc3)no2)cc1 [Compound V-234-01]					IC50 [1, 8]: 50 nM; Growth inhibition rate (%) [2, 10]: 76.9%
CCCCCOc1ccc(NC(=O)c2cccs2)cc1 [Compound V-103]		45.3%	+ (there was no growth inhibition at pH 7.0 but was the growth inhibition at pH 8.5)	100 nM	

Source: US12599588B2, “Inhibitor for V-ATPase activity, antibacterial agent, medicine, antibacterial method and screening method” (Japan Science and Technology Agency, priority 2019, dated 2026)
